The values that follow come from ChEMBL document CHEMBL1165956, “Design, synthesis, and pharmacological evaluation of N-(4-mono and 4,5-disubstituted thiazol-2-yl)-2-aryl-3-(tetrahydro-2H-pyran-4-yl)propanamides as glucokinase activators” (Bioorg Med Chem, 2010).

Activity calls are given as the source filed them. No cut-off for these calls is given here.

Series [1] has as its system Mus musculus. Briefly: Antihyperglycemic activity in diabetic C57BL/6J ob/ob mouse assessed as decrease in blood glucose at 20 mg/kg, po administered as single dose measured after 120 mins relative to control. The format is functional, organism-based. Details: dose 20 mg/kg.
Series [2] deals with Mus musculus. The series is described as follows: Hypoglycemic activity in non-diabetic ICR mouse assessed as decrease in blood glucose at 50 mg/kg, po administered as single dose measured after 240 mins relative to control. The series is classed as functional, organism-based. Details: dose 50 mg/kg.
In series [3] the target is T1, Hexokinase-4 (Rattus norvegicus, UniProt P17712).
T1 sequence (P17712 whole entry): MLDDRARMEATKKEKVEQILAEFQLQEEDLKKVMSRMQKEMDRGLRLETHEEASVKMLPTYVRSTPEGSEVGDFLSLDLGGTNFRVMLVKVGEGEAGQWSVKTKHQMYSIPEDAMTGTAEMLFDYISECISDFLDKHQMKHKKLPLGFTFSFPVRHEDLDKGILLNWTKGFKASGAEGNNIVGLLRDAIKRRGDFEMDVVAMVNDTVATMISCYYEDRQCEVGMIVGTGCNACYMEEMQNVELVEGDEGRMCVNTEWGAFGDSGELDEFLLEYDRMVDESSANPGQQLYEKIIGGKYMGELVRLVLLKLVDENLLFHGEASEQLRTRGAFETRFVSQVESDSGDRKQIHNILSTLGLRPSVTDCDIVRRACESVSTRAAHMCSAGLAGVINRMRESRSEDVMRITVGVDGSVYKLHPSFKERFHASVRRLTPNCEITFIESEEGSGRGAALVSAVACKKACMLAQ
Description: Induction of glucokinase-mediated 2-deoxy-D-[3H]glucose uptake in Sprague-Dawley rat hepatocytes after 4 hrs by liquid scintillation countingl

Series [4] deals with Mus musculus. Briefly: Antihyperglycemic activity in diabetic C57BL/6J ob/ob mouse assessed as decrease in blood glucose at 50 mg/kg, po administered as single dose measured after 60 mins relative to control. The format is functional, organism-based. Details: dose 50 mg/kg.
Series [5] relates to Hepatocyte. Briefly: Induction of glycogen synthesis in Sprague-Dawley rat hepatocytes at 20 uM after 4 hrs relative to control. The format is functional.
Series [6] concerns Mus musculus. Briefly: Hypoglycemic activity in non-diabetic ICR mouse assessed as decrease in blood glucose at 10 mg/kg, po administered as single dose measured after 30 mins relative to control. The format is functional. Details: scale not given: the % may be the effect or the level left.
Series [7] concerns Mus musculus. Briefly: Hypoglycemic activity in non-diabetic ICR mouse assessed as decrease in blood glucose at 3 mg/kg, po administered as single dose measured after 30 mins relative to control. The format is functional. Details: scale not given: the % may be the effect or the level left.
In series [8] the test system is Mus musculus. The series is described as follows: Antihyperglycemic activity in diabetic C57BL/6J ob/ob mouse assessed as decrease in blood glucose at 50 mg/kg, po administered as single dose measured after 180 mins relative to control. Details: dose 50 mg/kg. The format is functional, organism-based.
For series [9], the system named is Mus musculus. The series is described as follows: Antihyperglycemic activity in diabetic C57BL/6J ob/ob mouse assessed as decrease in blood glucose at 20 mg/kg, po administered as single dose measured after 180 mins relative to control. The format is functional, organism-based. Details: dose 20 mg/kg.
In series [10] the test system is Mus musculus. The series is described as follows: Antihyperglycemic activity in diabetic C57BL/6J ob/ob mouse assessed as decrease in blood glucose at 50 mg/kg, po administered as single dose measured after 120 mins relative to control. The format is functional, organism-based. Details: dose 50 mg/kg.
Series [11] has as its system Mus musculus. The series is described as follows: Hypoglycemic activity in non-diabetic ICR mouse assessed as decrease in blood glucose at 3 mg/kg, po administered as single dose measured after 120 mins relative to control. The format is functional, organism-based. Details: dose 3 mg/kg.
The subject of series [12] is Mus musculus. Briefly: Hypoglycemic activity in non-diabetic ICR mouse assessed as decrease in blood glucose at 50 mg/kg, po administered as single dose measured after 30 mins relative to control. The format is functional. Details: scale not given: the % may be the effect or the level left.
In series [13] the test system is Mus musculus. Briefly: Hypoglycemic activity in non-diabetic ICR mouse assessed as decrease in blood glucose at 10 mg/kg, po administered as single dose measured after 240 mins relative to control. The format is functional, organism-based. Details: dose 10 mg/kg.
In series [14] the target is T2, Hexokinase-4 (Homo sapiens, UniProt P35557).
T2 sequence (P35557 whole entry): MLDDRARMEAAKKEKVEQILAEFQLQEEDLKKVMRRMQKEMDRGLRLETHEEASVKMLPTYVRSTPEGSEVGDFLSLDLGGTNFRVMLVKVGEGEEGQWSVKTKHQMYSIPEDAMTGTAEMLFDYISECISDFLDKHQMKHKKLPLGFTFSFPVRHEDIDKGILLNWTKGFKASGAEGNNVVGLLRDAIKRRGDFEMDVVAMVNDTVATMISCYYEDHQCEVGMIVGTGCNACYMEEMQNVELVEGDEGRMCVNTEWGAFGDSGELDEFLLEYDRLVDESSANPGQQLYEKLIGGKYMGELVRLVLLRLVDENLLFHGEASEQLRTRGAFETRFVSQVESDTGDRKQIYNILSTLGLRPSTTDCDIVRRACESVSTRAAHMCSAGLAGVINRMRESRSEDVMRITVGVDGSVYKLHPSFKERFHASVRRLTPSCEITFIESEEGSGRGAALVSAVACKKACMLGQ
The series is described as follows: Activation of human glucokinase expressed in Escherichia coli BL21(DE3) coexpressing G6PDH by spectrometry.

Series [15] can be described thus: Oral bioavailability in rat. The settings on record: in vivo. The format is ADME, organism-based.
The nature of series [16]: Oral bioavailability in dog. The settings on record: in vivo. The format is ADME, organism-based, Canis lupus familiaris.

What is called EC50 is the concentration giving half of the maximal effect. With `CC(C)c1csc(NC(=O)[C@H](CC2CCOCC2)c2ccc(S(=O)(=O)C3CC3)cc2)n1`, the result in series [1], in series [2], in [4], in series [8], in series [9] and in series [10] was Active. The outcome in series [11] and in [13] was Active. Moreover, the EC50 in series [3] came out at 26 nM. Besides, the Activity in [5] is on record as 83.7%; in series [6], 33.9%; in [7], 12.7%; in series [12], 40.7%.
Regarding `CCc1csc(NC(=O)C(CC2CCOCC2)c2ccc(S(C)(=O)=O)cc2)n1` (stereo unspecified), in [14] (read-out: EC50), the EC50 was 1000 nM.
Same read-out and setting: then `CS(=O)(=O)c1ccc(C(CC2CCOCC2)C(=O)Nc2nccs2)cc1` (stereo unspecified), with 1690 nM; and `CC(C)(C)c1csc(NC(=O)C(CC2CCOCC2)c2ccc(S(C)(=O)=O)cc2)n1` (stereo unspecified), with 2930 nM.
In the case of `COc1ccc(-c2csc(NC(=O)C(CC3CCOCC3)c3ccc(S(C)(=O)=O)cc3)n2)cc1` (stereo unspecified), the EC50 in series [14] (read-out: EC50) was 1040 nM.
Still for that read-out and setting: then `CN1CCc2nc(NC(=O)C(CC3CCOCC3)c3ccc(S(=O)(=O)C4CC4)cc3)sc2C1` (stereo unspecified), with 2860 nM.
On the same count and under the same terms, for `Cc1nc(NC(=O)C(CC2CCOCC2)c2ccc(S(C)(=O)=O)cc2)sc1C` (stereo unspecified) the value was 2860 nM; for `O=C(Nc1nc2c(s1)CCC2)C(CC1CCOCC1)c1ccc(S(=O)(=O)C2CC2)cc1` (stereo unspecified), 79 nM.
Still for that read-out and setting: for `O=C1CSC(NC(=O)C(CC2CCOCC2)c2ccc(S(=O)(=O)C3CC3)cc2)=N1` (stereo unspecified) the value was 4680 nM.
With `CS(=O)(=O)c1ccc(C(CC2CCOCC2)C(=O)Nc2nc3cc(F)ccc3s2)cc1` (stereo unspecified), the concentration for a half-maximal effect (EC50) entry in [14] is listed as “Not Active”.
For `CC(C)c1csc(NC(=O)[C@H](CC2CCOCC2)c2ccc(S(C)(=O)=O)cc2)n1`, the EC50 in series [14] (read-out: EC50) stood at 330 nM.
Regarding `CC(C)c1nc(NC(=O)C(CC2CCOCC2)c2ccc(S(=O)(=O)C3CC3)cc2)sc1Br` (stereo unspecified), the EC50 in series [14] (read-out: EC50) came out at 320 nM.
Usually bioavailability stands for dose-corrected exposure relative to a reference, in per cent. Turning to `COC[C@H](C)Oc1cc(O[C@@H](C)Cc2ccccc2)cc(C(=O)Nc2ccc(C(=O)O)cn2)c1`, the figures for the bioavailability in series [15] and in series [16] were 90% and 100%, respectively.
Turning to `CS(=O)(=O)c1ccc(C(CC2CCOCC2)C(=O)Nc2nc(C3CC3)cs2)cc1` (stereo unspecified), in series [14] (read-out: EC50), the EC50 was 1350 nM.
In the case of `CC(C)c1nc(NC(=O)C(CC2CCOCC2)c2ccc(S(=O)(=O)C3CC3)cc2)sc1I` (stereo unspecified), in [14], the EC50 result is given as “Not Active”.
With `CC(C)c1csc(NC(=O)C(CC2CCOCC2)c2ccc(S(C)(=O)=O)cc2)n1` (stereo unspecified), in series [14] (read-out: EC50), the EC50 was determined as 310 nM.
Consider `CC(C)Cc1csc(NC(=O)C(CC2CCOCC2)c2ccc(S(C)(=O)=O)cc2)n1` (stereo unspecified), for which the EC50 in [14] (read-out: EC50) worked out at 355 nM.
Turning to `Cc1nc(NC(=O)C(CC2CCOCC2)c2ccc(S(C)(=O)=O)cc2)sc1C(C)C` (stereo unspecified), the EC50 entry in series [14] is “Not Active”.
Take `C=C(C)c1csc(NC(=O)C(CC2CCOCC2)c2ccc(S(=O)(=O)C3CC3)cc2)n1` (stereo unspecified): in series [14] (read-out: EC50), the EC50 is 158 nM.
The same measure, in the same setting: then `CS(=O)(=O)c1ccc(C(CC2CCOCC2)C(=O)Nc2nc(-c3ccc(F)cc3)cs2)cc1` (stereo unspecified), with 1180 nM; and `CS(=O)(=O)c1ccc(C(CC2CCOCC2)C(=O)Nc2nc(-c3ccccc3)cs2)cc1` (stereo unspecified), with 724 nM.
As for `O=C1N=C(NC(=O)C(CC2CCOCC2)c2ccc(S(=O)(=O)C3CC3)cc2)S/C1=C\c1ccccc1` (stereo unspecified), the EC50 result in series [14] is “Not Active”.
For the molecule `CC(C)/C=C1\SC(NC(=O)C(CC2CCOCC2)c2ccc(S(=O)(=O)C3CC3)cc2)=NC1=O` (stereo unspecified), the EC50 entry in [14] is “Not Active”.
